Assay [1] deals with recombinant human SGK-1 enzyme (Homo sapiens, UniProt O00141). The assay is described as follows: Enzymatic activity assay: SGK-1 substrate peptide phosphorylation (Caliper lab-chip mobility shift). The format is biochemical.
Assay [2] deals with SGK-1 dependent phosphorylation of GSK3beta in U2OS cells. The assay is described as follows: SGK-1 dependent phosphorylation of GSK3beta in U2OS cells overexpressing recombinant SGK-1 and GSK3beta. The format is cell-based, human. Conditions: U2OS cells, 6 h incubation, ratio of phosphorylated GSK3beta to total GSK3beta, read-out: IC50 values for inhibition of SGK-1 dependent phosphorylation of GSK3beta in U2OS cells. The method, then: B) Determination of the Effect on SGK-1 Dependent Phosphorylation of GSK3beta in U2OS Cells
U2OS cells were cultured in 1:1 Dulbecco modified Eagle medium/Ham's F12 and 10% heat-inactivated fetal calf serum (FCS Gold) at 37° C., 7% CO2 and 95% relative humidity. […] Cell suspension mixed with BacMam viruses was seeded in 96 well pCLEAR plates (Greiner) at 3×10^4 cells per well in 250 μl medium. […] 1 μl of a solution of the test compound at 250×final concentration was added. Cells are incubated at 37° C., 7% CO2 and 95% relative humidity. […] After removing the fixation solution, cells were permeabilised by adding 200 μl PBT (0.2% Triton X-100 in PBS) per well for 5 min. After removing PBT, cells were blocked by adding 200 μl of blocking solution (1% bovine serum albumine in PBS) per well. Blocking solution was removed and 50 μl of primary antibody (rabbit anti-phospho-GSK-3beta (Ser9), and mouse anti-GSK-3beta) were added for 1 h. […] After washing the cells 3 times with PBS, 200 μl of PBS were added. Fluorescence signals were measured with the ImageXpress MICRO (Molecular Devices).

[3] abbreviates: peptide substrate 1 μM, ATP 10 μM, 60 min at 37° C., read-out: IC50 values for inhibition of SGK-1 enzymatic activity.

Structures are written as SMILES. Read-outs that look alike come from different tables or passages of the source.

recombinant human SGK-1 enzyme, sequence (O00141 whole entry, looked up): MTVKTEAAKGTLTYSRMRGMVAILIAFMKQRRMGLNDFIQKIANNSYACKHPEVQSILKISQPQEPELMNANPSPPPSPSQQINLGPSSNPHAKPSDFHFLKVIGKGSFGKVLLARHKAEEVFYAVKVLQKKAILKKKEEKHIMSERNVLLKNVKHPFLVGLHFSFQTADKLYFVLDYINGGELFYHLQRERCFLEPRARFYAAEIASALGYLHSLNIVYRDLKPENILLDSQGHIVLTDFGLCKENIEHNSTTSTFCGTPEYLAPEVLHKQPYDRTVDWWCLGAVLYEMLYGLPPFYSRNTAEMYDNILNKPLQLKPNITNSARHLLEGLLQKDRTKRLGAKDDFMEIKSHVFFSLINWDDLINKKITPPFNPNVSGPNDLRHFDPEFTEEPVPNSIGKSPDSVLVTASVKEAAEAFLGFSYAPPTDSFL

For `COc1ccc(Cl)c(S(=O)(=O)Nc2ccc(-c3nc(N4CC(CO)C4)c4cn[nH]c4n3)cc2)c1` [Example 110], the figures for the IC50 in assay [1] (setting [3]) and in assay [2] were 14 nM and 5100 nM, respectively.
In the case of `Nc1n[nH]c2nc(-c3ccc(NS(=O)(=O)c4cc(F)c(F)cc4F)cc3)ncc12` [Example 516], the half-maximal inhibitory concentration (IC50) came to 300 nM in assay [1] (setting [3]) and 640 nM in assay [2].
Turning to `O=S(=O)(Nc1ccc(-c2nc(O[C@@H]3CCC[C@H]3O)c3cn[nH]c3n2)cc1)c1cc(Cl)ccc1Cl` [Example 88], the IC50 was 6.7 nM in assay [1] (setting [3]) and 4500 nM in assay [2].
For the compound `O=S(=O)(Nc1ccc(-c2nc(N[C@H]3CC[C@@H](O)CC3)c3cn[nH]c3n2)cc1)c1cc(Cl)ccc1Cl` [Example 78], the half-maximal inhibitory concentration (IC50) was determined as 3.6 nM in assay [1] (setting [3]) and 2600 nM in assay [2].
On the same counts, the results for `Cc1n[nH]c2nc(-c3ccc(NS(=O)(=O)c4cc(F)ccc4F)cc3)nc(OCC3CNCCO3)c12` (centres unmarked) [Example 292] are 14 nM and 930 nM.
In the same order, the values of `O=S(=O)(Nc1ccc(-c2nc(Oc3cccnc3)c3cn[nH]c3n2)cc1)c1cc(Cl)ccc1F` [Example 26] are < 1.2 nM and 2600 nM.
On the same counts, the results for `Cc1ccc(F)c(S(=O)(=O)Nc2ccc(-c3nc(C)c4c(N)n[nH]c4n3)cc2)c1` [Example 472] are 1.5 nM and 330 nM.
On to `Cc1n[nH]c2nc(-c3ccc(NS(=O)(=O)c4cc(Cl)ccc4C#N)cc3)nc(OCCCN)c12` [Example 220], for which the IC50 is < 1.5 nM in assay [1] (setting [3]) and 170 nM in assay [2].
As for `COc1nc(-c2ccc(NS(=O)(=O)c3cc(C)ccc3C#N)cc2)nc2[nH]ncc12` [Example 135], the values for the IC50 in assay [1] (setting [3]) and in assay [2] were 12 nM and 1900 nM, respectively.
On to `Cc1n[nH]c2nc(-c3ccc(NS(=O)(=O)c4cc(Cl)ccc4Cl)c(F)c3)ncc12` [Example 434], for which the IC50 worked out at 1.8 nM in assay [1] (setting [3]) and 3500 nM in assay [2].
On the same counts, the results for `Cc1n[nH]c2nc(-c3ccc(NS(=O)(=O)c4cc(Cl)ccc4Cl)cc3)nc(OC3CCN(CCF)CC3)c12` [Example 342] are 6 nM and 280 nM.
For the compound `CC(C)COc1nc(-c2ccc(NS(=O)(=O)c3ccccc3F)cc2)nc2[nH]nc(N)c12` [Example 331], the IC50 in assay [1] (setting [3]) turned out to be 290 nM; in assay [2], 240 nM.
In the same order, the values of `COCCc1nc(-c2ccc(NS(=O)(=O)c3cc(Cl)sc3Cl)cc2)nc2[nH]nc(N)c12` [Example 509] are 310 nM and 2500 nM.
As to `O=S(=O)(Nc1ccc(-c2nc(C3CC3)c3cn[nH]c3n2)cc1)c1cc(Cl)ccc1F` [Example 141], the IC50 is 6.5 nM in assay [1] (setting [3]) and 150 nM in assay [2].
On the same counts, the results for `COc1ccc(Cl)c(S(=O)(=O)Nc2ccc(-c3nc(OCC4CNCCO4)c4c(C)n[nH]c4n3)cc2)c1` (centres unmarked) [Example 290] are 3.3 nM and 15 nM.
On the same counts, the results for `Cc1ccc(C#N)c(S(=O)(=O)Nc2ccc(-c3nc(NC4CCC(O)CC4)c4c(C)n[nH]c4n3)cc2)c1` (centres unmarked) [Example 98] are 1.7 nM and 1700 nM.
Take `Nc1n[nH]c2cc(-c3ccc(NS(=O)(=O)c4cc(Cl)ccc4F)cc3)ncc12` [Example 559]: the IC50 in assay [1] (setting [3]) amounted to 19 nM; in assay [2], 390 nM.
On the same counts, the results for `Cc1ccc(F)c(S(=O)(=O)Nc2ccc(-c3ncc4c(C)n[nH]c4n3)cc2)c1` [Example 95] are < 1.5 nM and 4600 nM.
On the same counts, the results for `Cc1ccc(C#N)c(S(=O)(=O)Nc2ccc(-c3nc(C4CC4)c4cn[nH]c4n3)cc2)c1` [Example 145] are 4.1 nM and 350 nM.
On the same counts, the results for `COc1ccc(Cl)c(S(=O)(=O)Nc2ccc(-c3nc(OCCC(N)=O)c4cn[nH]c4n3)cc2)c1` [Example 117] are 2.3 nM and 6800 nM.
For `Cc1ccc(C#N)c(S(=O)(=O)Nc2ccc(-c3nc(CCCCl)c4cn[nH]c4n3)cc2)c1` [Example 146], the IC50 in assay [1] (setting [3]) came out at 47 nM; in assay [2], 11000 nM.
Turning to `COc1ccc(Cl)c(S(=O)(=O)Nc2ccc(-c3nc(OC)c4cn[nH]c4n3)cc2)c1` [Example 143], the IC50 came out at 10 nM in assay [1] (setting [3]) and 100 nM in assay [2].
In the case of `O=S(=O)(Nc1ccc(-c2nc(N3CCC(O)CC3)c3cn[nH]c3n2)cc1)c1cc(Cl)ccc1Cl` [Example 74], the IC50 in assay [1] (setting [3]) worked out at 5.5 nM; in assay [2] it was 1200 nM.
`Cc1ccc(C#N)c(S(=O)(=O)Nc2ccc(-c3ncc4c(C)n[nH]c4n3)cc2)c1` [Example 93]: the figures for the IC50 in assay [1] (setting [3]) and in assay [2] were 2400 nM and 3300 nM, respectively.
With `COc1cc(-c2ncc3c(C)n[nH]c3n2)ccc1NS(=O)(=O)c1cc(Cl)ccc1Cl` [Example 534, 2,5-Dichloro-N-[2-methoxy-4-(3-methyl-1H-pyrazolo[3,4-d]pyrimidin-6-yl)-phenyl]-benzenesulfonamide], the IC50 in assay [1] (read-out: IC50 values for inhibition of SGK-1 enzymatic activity, peptide substrate 1 μM, ATP 10 μM, 60 min at 37° C.) was < 1.5 nM; in assay [2] (Homo sapiens) it was 350 nM.
As for `O=S(=O)(Nc1ccc(-c2nc(OC3CNC3)c3cn[nH]c3n2)cc1F)c1cc(Cl)ccc1F` [Example 442], the IC50 in assay [1] (setting [3]) turned out to be 29 nM; in assay [2] it was 1300 nM.
On the same counts, the results for `O=S(=O)(Nc1ccc(-c2nc(Oc3cccnc3)c3cn[nH]c3n2)cc1)c1cc(Cl)ccc1Cl` [Example 27] are < 1.2 nM and 1900 nM.
In the same order, the values of `Nc1n[nH]c2nc(-c3ccc(NS(=O)(=O)c4cc(F)c(F)cc4Cl)cc3)ncc12` [Example 514] are 250 nM and 270 nM.
With `Cc1ccc(C#N)c(S(=O)(=O)Nc2ccc(-c3nc(OC4CCN(C)CC4)c4cn[nH]c4n3)cc2)c1` [Example 314], the figures for the IC50 in assay [1] (setting [3]) and in assay [2] were 4.5 nM and 250 nM, respectively.
Take `CC(C)COc1nc(-c2ccc(NS(=O)(=O)c3cccc(Cl)c3F)cc2)nc2[nH]nc(N)c12` [Example 327]: the IC50 in assay [1] (setting [3]) was determined as 420 nM; in assay [2], 430 nM.
In the same order, the values of `O=S(=O)(Nc1ccc(-c2nc(OCC3CNC3)c3cn[nH]c3n2)cc1)c1cc(Cl)ccc1F` [Example 198] are < 1.5 nM and 510 nM.
In the same order, the values of `Cc1nc(-c2ccc(NS(=O)(=O)c3cc(F)c(F)cc3Cl)cc2)nc2[nH]nc(N)c12` [Example 170] are 54 nM and 510 nM.
As for `Cc1nc(-c2ccc(NS(=O)(=O)c3cccc(Cl)c3F)cc2)nc2[nH]nc(N)c12` [Example 171], the IC50 came out at 40 nM in assay [1] (setting [3]) and 870 nM in assay [2].
Take `O=S(=O)(Nc1ccc(-c2nc(O[C@H]3CCCC[C@H]3O)c3cn[nH]c3n2)cc1)c1cc(Cl)ccc1Cl` [Example 82]: the IC50 in assay [1] (setting [3]) came out at 12 nM; in assay [2] it was 2100 nM.
Turning to `CC(C)COc1nc(-c2ccc(NS(=O)(=O)c3cc(Cl)ccc3F)cc2)nc2[nH]nc(N)c12` [Example 334], the IC50 in assay [1] (setting [3]) turned out to be 20 nM; in assay [2], 720 nM.
Turning to `Cc1ccc(F)c(S(=O)(=O)Nc2ccc(-c3nc(OC4CCC(O)CC4)c4c(C)n[nH]c4n3)cc2)c1` (centres unmarked) [Example 101], the IC50 in assay [1] (setting [3]) was found to be 2.1 nM; in assay [2], 430 nM.
In the same order, the values of `Cc1n[nH]c2nc(-c3ccc(NS(=O)(=O)c4ccccc4F)cc3)nc(OC3CCNCC3F)c12` (centres unmarked) [Example 297] are 1.8 nM and 80 nM.
With `Cc1nc(-c2ccc(NS(=O)(=O)c3cc4c(cc3Cl)OCCCO4)cc2)nc2[nH]nc(N)c12` [Example 476], the IC50 stood at 3.9 nM in assay [1] (setting [3]) and 3000 nM in assay [2].
In the same order, the values of `O=S(=O)(Nc1ccc(-c2nc(O[C@@H]3CCCC[C@@H]3O)c3cn[nH]c3n2)cc1)c1cc(Cl)ccc1F` (racemic) [Example 81] are 11 nM and 1700 nM.
On the same counts, the results for `Nc1n[nH]c2cc(-c3ccc(NS(=O)(=O)c4cc(Cl)sc4Cl)cc3)ncc12` [Example 558] are 13 nM and 520 nM.
On the same counts, the results for `Cc1ccc(F)c(S(=O)(=O)Nc2ccc(-c3nc(OCCCN)c4c(C)n[nH]c4n3)cc2)c1` [Example 207] are < 1.5 nM and 140 nM.
For the compound `Cc1ccc(C#N)c(S(=O)(=O)Nc2ccc(-c3nc(OC4CCNCC4F)c4c(C)n[nH]c4n3)cc2)c1` (centres unmarked) [Example 300], the values for the IC50 in assay [1] (setting [3]) and in assay [2] were 1.1 nM and 92 nM, respectively.
On the same counts, the results for `Cc1n[nH]c2nc(-c3ccc(NS(=O)(=O)c4cc(F)ccc4F)cc3)nc(OC3CCNCC3F)c12` (centres unmarked) [Example 296] are 2.7 nM and 60 nM.
In the same order, the values of `COCCc1nc(-c2ccc(NS(=O)(=O)c3cc(C)ccc3F)cc2)nc2[nH]nc(N)c12` [Example 503] are 29 nM and 630 nM.
With `Cc1n[nH]c2nc(-c3ccc(NS(=O)(=O)c4cc(F)ccc4F)cc3)nc(OC3CCC(O)CC3)c12` (centres unmarked) [Example 217], the IC50 in assay [1] (setting [3]) turned out to be 9.1 nM; in assay [2], 190 nM.
As to `Cc1nc(-c2ccc(NS(=O)(=O)c3cc(Cl)ccc3C#N)cc2)nc2[nH]nc(N3CCCC4(COC4)C3)c12` [Example 499], the IC50 was 8.9 nM in assay [1] (setting [3]) and 8800 nM in assay [2].

One may read the IC50 as the midpoint of a concentration-inhibition curve.

The record behind these values is patent publication US9718825B2, “N-(4-(azaindazol-6-yl)-phenyl)-sulfonamides and their use as pharmaceuticals” (priority 2013, dated 2017).
